Patent US8546389B2 (priority 2010, dated 2013)

Columns and labels:
1b (BK) NS5bΔ21 = 1b (BK) NS5bΔ21 (Hepatitis C virus genotype 1b (isolate BK) (HCV), UniProt P26663); test: HCV polymerase inhibition assay, genotype 1b; assay type: biochemical, HCV genotype 1b (BK); details: 1b (BK) NS5bΔ21, 33P-GTP incorporation; read-out: 1b polymerase IC50 (range class)
Description: HCV polymerase reactions were carried out using a modified method of Howe et al., Antimicrobial Agents and Chemotherapy 2004 48(12): 4813-4821. Reactions contained a final concentration of, 0.5% DMSO, 50 nM, 1b (BK) NS5bΔ21, 20 mM Tris-HCl pH 7.5, 5 mM MgCl2, 5 mM MnCl2, 3 mM DTT, 0.05% BSA, 0.2 U/μL RNasin, 10 μg/mL Poly(rC) template, GTP (at Km) and 0.05 μCi/μL ^33P-GTP in a total reaction volume of 50 μL. Compounds were tested in a three fold dilution series, for example starting from 50 μM. Reactions were initiated with the addition of GTP and terminated after 1 hour with 50 μL ice cold 0.2 M EDTA. Terminated reactions were transferred to DEAE 96-well filter plates, unincorporated nucleotides washed from the filters and 50 μL scintillation fluid added prior to reading on a scintillation counter. Similarly, a genotype 3a (VRL-69) NS5bΔ21 polymerase enzyme assay was conducted using essentially the same method.
The compound concentration that reduced ^33P-GTP incorporation by 50% (IC50) was calculated using non-linear regression.

[1] = test system: genotype 1b (Con 1) subgenomic replicon cell line; test: HCV replicon assay, genotype 1b (Renilla luciferase); assay type: cell-based, HCV genotype 1b (Con 1); details: Hepatitis C virus; genotype 1b replicon, 72 hours, luciferase; read-out: genotype 1b EC50 (range class)
Description: A genotype 1b (Con 1) subgenomic replicon cell line based on Blight et al., Science 2000 290: 1972-1974, modified to express a Renilla luciferase reporter gene was used to assess antiviral activity of test compounds. Cell cultures were maintained in a sub-confluent state in DMEM with glutamine, 10% heat-inactivated foetal bovine serum (FBS) and G418 (Geneticin®).
For assay, cells were seeded at a density of 7000 cells/well into 96 well tissue culture trays in culture media lacking G418. Compounds were tested in a three fold dilution series, for example starting from 50 uM. After 72 hours incubation at 37° C. and 5% CO2, Renilla luciferase activity was quantified via the Promega Renilla Luciferase or Renilla-Glo™ Luciferase Assay Systems (Promega corporation. The same method was employed for replicon assays using subgenomic genotype 1a and 2a replicon cell lines with a seeding cell density of 5000 cells/well for the 2a cell lines.
The compound concentration that reduced luciferase activity by 50% (EC50) was calculated using non-linear regression.

Chain of 1b (BK) NS5bΔ21 (P26663 2420-2989): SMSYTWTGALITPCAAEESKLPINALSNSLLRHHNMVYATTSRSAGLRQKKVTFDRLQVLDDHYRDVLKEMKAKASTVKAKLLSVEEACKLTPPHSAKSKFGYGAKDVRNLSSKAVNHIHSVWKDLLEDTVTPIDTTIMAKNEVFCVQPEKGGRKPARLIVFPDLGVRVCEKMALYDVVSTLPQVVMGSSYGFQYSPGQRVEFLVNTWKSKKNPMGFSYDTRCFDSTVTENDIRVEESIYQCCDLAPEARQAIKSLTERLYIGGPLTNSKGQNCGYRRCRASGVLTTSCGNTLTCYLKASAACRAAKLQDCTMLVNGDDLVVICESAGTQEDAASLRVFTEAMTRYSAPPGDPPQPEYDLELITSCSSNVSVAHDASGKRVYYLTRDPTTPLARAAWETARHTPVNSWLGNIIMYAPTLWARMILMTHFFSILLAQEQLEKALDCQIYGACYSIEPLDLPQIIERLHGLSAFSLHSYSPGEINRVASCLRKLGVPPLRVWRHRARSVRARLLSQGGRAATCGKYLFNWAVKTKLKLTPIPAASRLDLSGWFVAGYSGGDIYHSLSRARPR

| SMILES | IC50 (1b (BK) NS5bΔ21) [nM] | EC50 [1] [µM] |
| --- | --- | --- |
| CNC(=O)c1c2cc(C3CC3)c(N(CCCO)S(C)(=O)=O)cc2nn1-c1ccc(Oc2ccc(F)cc2)cc1 [Compound 30] | < 990 | < 0.99 |
| CCN(c1cc2nn(-c3ccc(Nc4ccccc4F)cc3)c(C(=O)NC)c2cc1C1CC1)S(C)(=O)=O [Compound 25] | < 990 | < 0.99 |
| CNC(=O)c1c2cc(C3CC3)c(N(CCC3COC(=O)OC3)S(C)(=O)=O)cc2nn1-c1ccc(Br)cc1 [Compound 97, 2-(4-bromophenyl)-5-cyclopropyl-N-methyl-6-{(methylsulfonyl)[2-(2-oxo-1,3-dioxan-5-yl)-ethyl]amino}-2H-indazole-3-carboxamide] | < 990 | 1 to 9.99 |
| CNC(=O)c1c2cc(C3CC3)c(N(CC3CCOC3)S(C)(=O)=O)cc2nn1-c1ccc(Cl)cc1 (stereo not drawn) [Compound 252] | < 990 | < 0.99 |
| CNC(=O)c1c2cc(C3CC3)c(N(CCCOC(=O)c3cnccn3)S(C)(=O)=O)cc2nn1-c1ccc(Oc2ccc(F)cc2)cc1 [Compound 118] | < 990 | < 0.99 |
| CNC(=O)c1c2cc(C3CC3)c(N(CCNC(=O)Cc3nn[nH]n3)S(C)(=O)=O)cc2nn1-c1ccc(Br)cc1 [Compound 8, 2-(4-bromophenyl)-5-cyclopropyl-N-methyl-6-[(methylsulfonyl){2-[(2H-tetrazol-5-ylacetyl)amino]ethyl}amino]-2H-indazole-3-carboxamide] | < 990 | 10 to 50 |
| CCN(c1cc2nn(-c3ccc(F)cc3)c(C(=O)NC)c2cc1C#CC(C)(C)O)S(C)(=O)=O [Compound 149] | < 990 | 10 to 50 |
| CNC(=O)c1c2cc(C3CC3)c(N(CCCNC(=O)c3ccc(N4CCOCC4)nc3)S(C)(=O)=O)cc2nn1-c1ccc(Br)cc1 [Compound 186] | < 990 | < 0.99 |
| CCN(c1cc2nn(-c3ccc(NC(C)C)cc3)c(C(=O)NC)c2cc1C1CC1)S(C)(=O)=O [Compound 38] | 1000 to 9990 | < 0.99 |
| CNC(=O)c1c2cc(C3CC3)c(N(CCCNC(=O)c3ccccc3)S(C)(=O)=O)cc2nn1-c1ccc(Cl)cc1 [Compound 197] | < 990 | < 0.99 |
| CNC(=O)c1c2cc(C3CC3)c(N(CCCNC(=O)c3ccccc3C(=O)O)S(C)(=O)=O)cc2nn1-c1ccc(NCC(C)C)cc1 [Compound 146] | < 990 | 1 to 9.99 |
| CNC(=O)c1c2cc(C3CC3)c(N(CCC(=O)NS(=O)(=O)c3ccccc3)S(C)(=O)=O)cc2nn1-c1ccc(Br)cc1 [Compound 150] | < 990 | 10 to 50 |
| CNC(=O)c1c2cc(C3CC3)c(N(CCO)S(C)(=O)=O)cc2nn1-c1ccc(Oc2ccc(F)cc2)cc1 [Compound 3, 5-cyclopropyl-2-[4-(4-fluorophenoxy)phenyl]-6-[(2-hydroxyethyl)-(methylsulfonyl)amino]-N-methyl-2H-indazole-3-carboxamide] | 1000 to 9990 | < 0.99 |
| CNC(=O)c1c2cc(C3CC3)c(N(CCCF)S(C)(=O)=O)cc2nn1-c1ccc(Cl)cc1 [Compound 57, 2-(4-chlorophenyl)-5-cyclopropyl-6-[3-fluoropropyl(methylsulfonyl)amino]-N-methyl-2H-indazole-3-carboxamide] | < 990 | < 0.99 |
| CNC(=O)c1c2cc(C3CC3)c(N([C@H]3CCNC3)S(C)(=O)=O)cc2nn1-c1ccc(Br)cc1 (racemic) [Compound 195] | 1000 to 9990 | 10 to 50 |
| CNC(=O)c1c2cc(C3CC3)c(-c3c(C)noc3C)cc2nn1-c1ccc(F)cc1 [Compound 83, 5-Cyclopropyl-6-(3,5-dimethyl-1,2-oxazol-4-yl)-2-(4-fluorophenyl)-N-methyl-2H-indazole-3-carboxamide] | 10000 to 50000 | 1 to 9.99 |
| CNC(=O)c1c2cc(C3CC3)c(N(CCOC(=O)c3ccccc3C(=O)O)S(C)(=O)=O)cc2nn1-c1ccc(F)cc1 [Compound 15, 2-[(2-{[5-cyclopropyl-2-(4-fluorophenyl)-3-(methylcarbamoyl)-2H-indazol-6-yl](methylsulfonyl)amino}ethoxy)carbonyl]benzoic acid] | 1000 to 9990 |  |
| CNC(=O)c1c2cc(C3CC3)c(N(CCO)S(C)(=O)=O)cc2nn1-c1ccc(Nc2ccccc2F)cc1 [Compound 26] | < 990 | < 0.99 |
| CNC(=O)c1c2cc(C3CC3)c(N(CCCN(C)S(C)(=O)=O)S(C)(=O)=O)cc2nn1-c1ccc(Br)cc1 [Compound 135] | < 990 | < 0.99 |

| SMILES | IC50 (1b (BK) NS5bΔ21) [nM] | EC50 [1] [µM] |
| --- | --- | --- |
| CCC(c1cc2nn(-c3ccc(C)cc3)c(C(=O)NC)c2cc1C1CC1)S(C)(=O)=O (racemic) [Compound 86, 5-cyclopropyl-N-methyl-2-(4-methylphenyl)-6-[1-(methylsulfonyl)propyl]-2H-indazole-3-carboxamide] | 10000 to 50000 | 1 to 9.99 |
| CNC(=O)c1c2cc(C3CC3)c(N(CCO)S(C)(=O)=O)cc2nn1-c1ccc(Oc2ccccc2F)cc1 [Compound 18] | 1000 to 9990 | 1 to 9.99 |
| CNC(=O)c1c2cc(C3CC3)c(N(CCF)S(C)(=O)=O)cc2nn1-c1ccc(Cl)cc1 [Compound 247] | < 990 | < 0.99 |
| CNC(=O)c1c2cc(C3CC3)c(N(CCC(=O)NC(C)C)S(C)(=O)=O)cc2nn1-c1ccc(Br)cc1 [Compound 91, 2-(4-bromophenyl)-5-cyclopropyl-N-methyl-6-((methylsulfonyl)[3-oxo-3-(propan-2-ylamino)propyl]amino)-2H-indazole-3-carboxamide] | 1000 to 9990 | 1 to 9.99 |
| CNC(=O)c1c2cc(C3CC3)c(N(CCCNC(=O)[C@H]3CCC[C@H]3C(=O)OC)S(C)(=O)=O)cc2nn1-c1ccc(Br)cc1 [Compound 215] | < 990 | < 0.99 |
| C=Cc1cc2c(C(=O)NC)n(-c3ccc(F)cc3)nc2cc1N(CC)S(C)(=O)=O [Compound 71, 5-Ethenyl-6-[ethyl(methylsulfonyl)amino]-2-(4-fluorophenyl)-N-methyl-2H-indazole-3-carboxamide] | 1000 to 9990 | 1 to 9.99 |
| CNC(=O)c1c2cc(C3CC3)c(N(CC3COC(C)(C)OC3)S(C)(=O)=O)cc2nn1-c1ccc(Br)cc1 [Compound 202] | < 990 | < 0.99 |
| CCN(c1ccc2c(C(=O)NC)n(-c3ccc(F)cc3)nc2c1)S(C)(=O)=O [Compound 137] | 10000 to 50000 |  |
| CNC(=O)c1c2cc(C3CC3)c(-c3cncn3C)cc2nn1-c1ccc(F)cc1 [Compound 158] | 10000 to 50000 |  |
| CNC(=O)c1c2cc(C3CC3)c(N(CCO)S(C)(=O)=O)cc2nn1-c1ccc(Nc2cccc(O)c2)cc1 [Compound 33] | 10000 to 50000 |  |
| CCN(c1cc2nn(-c3ccc(F)cc3)c(C(=O)NC)c2cc1C(C)C)S(C)(=O)=O [Compound 130] |  | 10 to 50 |
| CNC(=O)c1c2cc(C3CC3)c([C@@H]3CN(Cc4ccccc4)C[C@H]3C(C)=O)cc2nn1-c1ccc(Br)cc1 (relative stereo) [Compound 80, trans-6-(4-acetyl-1-benzylpyrrolidin-3-yl)-2-(4-bromophenyl)-5-cyclopropyl-N-methyl-2H-indazole-3-carboxamide] |  | 1 to 9.99 |
| CCN(C)S(=O)(=O)c1cc2nn(-c3ccc(F)cc3)c(C(=O)NC)c2cc1C1CC1 [Compound 227] |  | 10 to 50 |
| CNC(=O)c1c2cc(C3CC3)c(N(CCNC(=O)Cc3nn[nH]n3)S(C)(=O)=O)cc2nn1-c1ccc(Nc2ccc(F)cc2)cc1 [Compound 31] | < 990 |  |
| CCN(c1cc2nn(-c3ccc(OCC(C)C)cc3)c(C(=O)NC)c2cc1C1CC1)S(C)(=O)=O [Compound 121] | 1000 to 9990 |  |
| CNC(=O)c1c2cc(C3CC3)c(N3CCNS3(=O)=O)cc2nn1-c1ccc(Br)cc1 [Compound 103, 2-(4-Bromophenyl)-5-cyclopropyl-6-(1,1-dioxido-1,2,5-thiadiazolidin-2-yl)-N-methyl-2H-indazole-3-carboxamide] | 1000 to 9990 |  |
| CCn1ccnc1-c1cc2nn(-c3ccc(F)cc3)c(C(=O)NC)c2cc1C1CC1 [Compound 84, 5-Cyclopropyl-6-(1-ethyl-1H-imidazol-2-yl)-2-(4-fluorophenyl)-N-methyl-2H-indazole-3-carboxamide] |  | 10 to 50 |
| CNC(=O)c1c2cc(OC)c(N(CCO)S(C)(=O)=O)cc2nn1-c1ccc(F)cc1 [Compound 12, 2-(4-fluorophenyl)-6-[2-hydroxyethyl(methylsulfonyl)amino]-5-methoxy-N-methyl-indazole-3-carboxamide] |  | 10 to 50 |
| CNC(=O)c1c2cc(C3CC3)c(-c3ncc(CO)s3)cc2nn1-c1ccc(F)cc1 [Compound 159] |  | 10 to 50 |
